# Biological target: T1, ER-alpha (WT) (Homo sapiens, UniProt P03372)
# T1 construct: endogenous in cells; host or cells: MCF7 breast cancer cells
# T1 sequence (P03372 1-595): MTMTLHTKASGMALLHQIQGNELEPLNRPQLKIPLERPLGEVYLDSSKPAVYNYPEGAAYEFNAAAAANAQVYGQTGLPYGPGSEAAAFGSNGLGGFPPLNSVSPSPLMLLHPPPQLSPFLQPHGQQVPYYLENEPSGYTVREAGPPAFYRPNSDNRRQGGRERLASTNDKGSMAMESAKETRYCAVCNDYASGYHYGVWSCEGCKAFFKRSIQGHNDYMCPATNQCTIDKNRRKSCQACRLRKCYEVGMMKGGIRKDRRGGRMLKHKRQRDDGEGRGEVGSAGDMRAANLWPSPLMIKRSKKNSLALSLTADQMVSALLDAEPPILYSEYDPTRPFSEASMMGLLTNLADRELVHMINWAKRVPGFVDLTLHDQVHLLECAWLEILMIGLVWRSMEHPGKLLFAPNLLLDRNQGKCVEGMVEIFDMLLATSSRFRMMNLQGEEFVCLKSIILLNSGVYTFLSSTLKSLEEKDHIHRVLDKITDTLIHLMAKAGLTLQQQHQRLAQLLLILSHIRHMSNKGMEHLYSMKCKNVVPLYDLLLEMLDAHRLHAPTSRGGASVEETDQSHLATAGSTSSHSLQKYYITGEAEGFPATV
# Test: Breast Cancer Cell ERa High Content Fluorescence Imaging Degradation Assay (MCF7 HCS)
# Type: cell-based
# Settings: MCF7 breast cancer cells, 4 hours incubation; for EC50: inflexion point of curve; for ERalpha (WT) MCF7 HCS (S inf): plateau of the maximal effect, DMSO and Fulvestrant define 0% and 100% changes in ESR1
# Protocol: MCF7 breast cancer cells were seeded on day 1 at a density of 10,000 cells per well in 384 well poly-lysine coated tissue culture plate (Greiner #T-3101-4), in 50 μL/well RPMI (phenol red free), 10% FBS (Charcoal stripped), containing L-glutamine. […] Compounds and controls were dispensed using a Labcyte Echo acoustic dispenser to dispense compounds with a predefined serial dilution (1.8×, 10 point, in duplicate) and appropriate backfill and control compounds (final total volume transferred was 417.5 nL and compound dispense volume ranges from 2.5 nL to 417.5 nL; 0.84% DMSO (v/v) final), ultimately producing a concentration range from 0.05 nM to 835 nM. Cell plates were incubated at 37° C., for 4 hours. Fixation and permeabilization were carried out using a Biotek EL406 plate washer and dispenser as follows. Cells were fixed by addition of 15 μL of 16% paraformaldehyde (Electron Microscopy Sciences #15710-S) directly to the 50 μL cell culture medium in each well using the peristaltic pump 5 μL cassette on a Biotek EL406 (final concentration of formaldehyde was 3.7% w/v). Samples were incubated 30 minutes. Well contents was aspirated and 50 μL/well of Phosphate Buffered Saline (PBS) containing 0.5% w/v bovine serum albumen, 0.5% v/v Triton X-100 (Antibody Dilution Buffer) was added to each well. Samples were incubated for 30 minutes. Well contents were aspirated and washed 3 times with 100 μL/well of PBS. Immunofluorescence staining of estrogen receptor alpha (ESR1) was carried out using a Biotek EL406 plate washer and dispenser as follows. The well supernatant was aspirated from the wells and 25 μL/well of anti-ESR1 mAb (F10) (Santa Cruz sc-8002) diluted 1:1000 in Antibody Dilution Buffer was dispensed. Samples were incubated for 2 hours at room temperature. Samples were washed 4 times with 100 μL/well of PBS. 25 μL (microliters)/well of secondary antibody solution (Alexafluor® 488 conjugate anti-mouse IgG (LifeTechnologies #A21202) diluted 1:1000 and Hoechst 33342 1 μg/mL diluted in Antibody Dilution Buffer) were dispensed into each well. Samples were incubated for 2 hours at room temperature. Samples were washed 3 times with 100 μL/well of PBS using a Biotek EL406. Quantitative fluorescence imaging of ESR1 was carried out using a Cellomics Arrayscan V® (Thermo). Fluorescence images of the samples (Channel 1: XF53 Hoechst (DNA stain); Channel 2: XF53 FITC (ESR1 stain)) were acquired using a Cellomics VTI Arrayscan using the Bioapplication “Compartmental Analysis” using the auto-exposure (based on DMSO control wells) setting “peak target percentile” set to 25% target saturation for both channels. Channel 1 (DNA stain) was used to define the nuclear region (Circ). Measurements of “Mean_CircAvgIntCh2”, which is the Alexafluor 488 fluorescence intensity (ESR1) within the nuclear region, was measured on a per cell basis and averaged over all the measured cells. Data analysis was carried out using Genedata Screener Software, with DMSO and 5 nM Fulvestrant treated samples being used to define the 0% and 100% changes in ESR1. The “Robust Fit” method was used to define the inflexion point of curve (EC50) and the plateau of the maximal effect (Sinf).
SMILES,EC50 [nM],ERalpha (WT) MCF7 HCS (S inf) [%]
"CC(C)(F)C(=O)N1CCc2cc(O)ccc2[C@@H]1c1ccc(OCCN2CC(CF)C2)cc1 (single isomer, unassigned) [Example 103]",100,–
"CC(C)(F)C(=O)N1CCc2cc(O)ccc2[C@H]1c1ccc(OCCN2CC(CF)C2)cc1 (single isomer, unassigned) [Example 104]",0.741,−90
"CC(C)(F)CN1CCc2cc(O)ccc2[C@]1(C)c1ccc(OCCN2CC(CF)C2)cc1 (single isomer, unassigned) [Example 107]",3.22,−97
"CS(=O)(=O)N1CCc2cc(O)ccc2[C@@H]1c1ccc(OCCN2CC(CF)C2)cc1 (single isomer, unassigned) [Example 109]",≥ 100,–
"CS(=O)(=O)N1CCc2cc(O)ccc2[C@H]1c1ccc(OCCN2CC(CF)C2)cc1 (single isomer, unassigned) [Example 110]",8.28,−85
"C[C@H]1CN(S(C)(=O)=O)[C@@H](c2ccc(OCCN3CC(CF)C3)cc2)c2ccc(O)cc21 (single isomer, unassigned) [Example 118]",≥ 100,–
"C[C@@H]1CN(S(C)(=O)=O)[C@@H](c2ccc(OCCN3CC(CF)C3)cc2)c2ccc(O)cc21 (single isomer, unassigned) [Example 119]",≥ 100,–
"C[C@H]1Cc2c(ccc3[nH]ncc23)[C@H](c2c(F)cc(OCCN3CC(CF)C3)cc2F)N1CC(C)(C)F (single isomer, unassigned) [Example 124]",3.23,−90
"CC(C)(F)CN1CCc2cc(O)ccc2[C@@]1(c1ccc(OCCN2CC(CF)C2)cc1)C(F)F (single isomer, unassigned) [Example 127]",22,−85
"C[C@H]1Cc2cc(O)ccc2[C@H](c2ccc(OCCN3CC(CF)C3)cc2)N1CC(F)(F)F (single isomer, unassigned) [Example 131]",1.4,−96
"Oc1ccc2c(c1)CCN(CC(F)(F)F)C2c1c(F)cc(OC2CN(CCCF)C2)cc1F (single isomer, unassigned) [Example 143]",22,−100
"OCc1ccc2c(c1)CCN(CC(F)(F)F)C2c1ccc(OCCN2CC(CF)C2)cc1 (single isomer, unassigned) [Example 149]",100,−100
"Oc1ccc2c(c1)CCN(CC(F)(F)F)[C@H]2c1ccc(OCCN2CC(CF)C2)cc1 (single isomer, unassigned) [Example 153]",0.54,−99
"C[C@H]1Cc2ccccc2[C@H](c2ccc(OCCN3CC(CF)C3)cc2)N1CC(F)(F)F (single isomer, unassigned) [Example 155]",31,−70
"C[C@@H]1Cc2ccccc2[C@@H](c2ccc(OCCN3CC(CF)C3)cc2)N1CC(F)(F)F (single isomer, unassigned) [Example 156]",0.85,−97
"C[C@H]1Cc2cc(CO)ccc2[C@H](c2ccc(OCCN3CC(CF)C3)cc2)N1CC(F)(F)F (single isomer, unassigned) [Example 160]",19,−88
"C[C@H]1Cc2cc(C(=O)O)ccc2[C@H](c2ccc(OCCN3CC(CF)C3)cc2)N1CC(F)(F)F (single isomer, unassigned) [Example 163]",11,−92
"C[C@@H]1Cc2cc(C(=O)O)ccc2[C@@H](c2ccc(OCCN3CC(CF)C3)cc2)N1CC(F)(F)F (single isomer, unassigned) [Example 164]",1.3,−100
"C[C@@H]1Cc2cccc(O)c2[C@@H](c2ccc(OCCN3CC(CF)C3)cc2)N1CC(F)(F)CO (single isomer, unassigned) [Example 167]",22,−82
"C[C@H]1Cc2cccc(O)c2[C@H](c2ccc(OCCN3CC(CF)C3)cc2)N1CC(F)(F)CO (single isomer, unassigned) [Example 168]",510,–
"C[C@H]1Cc2cc(CO)ccc2[C@H](c2ccc(NC3CN(CCCF)C3)cc2)N1CC(F)(F)F (single isomer, unassigned) [Example 169]",37,−60
"C[C@H]1Cc2cc(CO)ccc2[C@H](c2ccc(OCCN3CC(CF)C3)cc2)N1CC(F)(F)CO (single isomer, unassigned) [Example 171]",23,−63

# These reach a lower EC50. Values come first.
EC50 [nM],ERalpha (WT) MCF7 HCS (S inf) [%],SMILES
0.0344,−98,"CC(C)(F)CN1CCc2cc(O)ccc2[C@@]1(C)c1ccc(OCCN2CC(CF)C2)cc1 (single isomer, unassigned) [Example 108]"
0.06,−98.8,"C[C@@H]1Cc2c(ccc3[nH]ncc23)[C@@H](c2c(F)cc(OCCN3CC(CF)C3)cc2F)N1CC(C)(C)F (single isomer, unassigned) [Example 123]"
0.075,−95,"CC(C)(F)CN1CCc2cc(O)ccc2[C@]1(c1ccc(OCCN2CC(CF)C2)cc1)C(F)F (single isomer, unassigned) [Example 128]"
0.011,−97,"C[C@@H]1Cc2cc(O)ccc2[C@@H](c2ccc(OCCN3CC(CF)C3)cc2)N1CC(F)(F)F (single isomer, unassigned) [Example 132]"
0.101,−95.4,"Oc1ccc2c(c1)CCCN(CC(F)(F)F)[C@H]2c1ccc(OCCN2CC(CF)C2)cc1 (single isomer, unassigned) [Example 139]"
0.05,−96.6,"Oc1ccc2c(c1)CCCN(CC(F)(F)F)[C@@H]2c1ccc(OCCN2CC(CF)C2)cc1 (single isomer, unassigned) [Example 140]"
0.041,−102,"Oc1ccc2c(c1)CCN(CC(F)(F)F)C2c1c(F)cc(OC2CN(CCCF)C2)cc1F (single isomer, unassigned) [Example 144]"
0.024,−99,"Oc1ccc2c(c1)CCN(CC(F)(F)F)[C@@H]2c1ccc(OCCN2CC(CF)C2)cc1 (single isomer, unassigned) [Example 154]"
0.042,−96,"CC1(C)Cc2cc(O)ccc2C(c2ccc(OCCN3CC(CF)C3)cc2)N1CC(F)(F)F (single isomer, unassigned) [Example 158]"
0.043,−99,"C[C@@H]1Cc2cc(CO)ccc2[C@@H](c2ccc(OCCN3CC(CF)C3)cc2)N1CC(F)(F)F (single isomer, unassigned) [Example 159]"
0.088,−100,"C[C@@H]1Cc2cc(CO)ccc2[C@@H](c2ccc(NC3CN(CCCF)C3)cc2)N1CC(F)(F)F (single isomer, unassigned) [Example 170]"
